In US9993494B2, “Compositions and methods for treating fibrotic disease” (eFFECTOR Therapeutics, Inc., priority 2014, dated 2018):

System: normal human lung fibroblasts
Assay: Ribosomal profiling: translational efficiency in TGFβ-treated fibroblasts
Format: cell-based
Conditions: TGFβ-treated fibroblasts
Experimental: Ribosomal profiling allows for measurement of changes in transcription and translation on a genome-wide basis accompanying TGFβ-dependent transformation of fibroblasts to myofibroblasts. Ribosomal profiles of the TGFβ-treated fibroblasts from Example 1 (about 6×10^6 cells/10 cm plate) were prepared and analyzed for changes in translational efficiencies with respect to potential disease-associated cellular changes accompanying this TGFβ-induced transformation.
Briefly, cells were washed with cold PBS supplemented with cycloheximide and lysed with 1× mammalian cell lysis buffer for 10 minutes on ice. Lysates were clarified by centrifugation for 10 minutes at 14,000 rpm and supernatants were collected. Cell lysates were processed to generate ribosomal protected fragments and total mRNA according to the instructions included with the ARTseq Ribosome Profiling Kit (Illumina, San Diego, Calif.). Sequencing of total RNA (RNA) and of ribosome-protected fragments of RNA (RPF) was carried out using RNA-Seq methodology according to the manufacturer's instructions (Illumina). To analyze the ribosomal profiles, RNA-Seq reads were processed with tools from the FASTX-Toolkit (fastq_quality_trimmer, fastx_clipper and fastx_trimmer). Unprocessed and processed reads were evaluated for a variety of quality measures using FastQC, and processed reads were mapped to the human genome using TopHat (see, e.g., Trapnell et al., Bioinformatics 25:1105, 2009). Gene-by-gene assessment of the number of fragments strictly and uniquely mapping to the coding region of each gene was conducted using HTSeq-count, a component of the HTSeq package. […] Genes with low counts in either RPF or RNA were excluded from differential analyses. Pathway and network analyses of differential data were conducted using Ingenuity Pathway Analysis (IPA).

CC(C=CC(=O)NO)=CC(C)C(=O)c1ccc(N(C)C)cc1 (stereo not drawn) [TSA, 7-[4-(dimethylamino)phenyl]-N-hydroxy-4,6-dimethyl-7-oxohepta-2,4-dienamide]
renormalizing the translational profile of NECAB3 (ENSG00000125967): − (− = <0.9) | renormalizing the translational profile of COX7C (ENSG00000127184): − (− = <0.9) | renormalizing the translational profile of LIF (ENSG00000128342): − (− = <0.9) | renormalizing the translational profile of MTUS1 (ENSG00000129422): − (− = <0.9) | renormalizing the translational profile of ARHGEF6 (ENSG00000129675): − (− = <0.9) | renormalizing the translational profile of RPL36 (ENSG00000130255): − (− = <0.9) | renormalizing the translational profile of GDF15 (ENSG00000130513): − (− = <0.9) | renormalizing the translational profile of ASS1 (ENSG00000130707): − (− = <0.9) | renormalizing the translational profile of EIF2S3 (ENSG00000130741): − (− = <0.9) | renormalizing the translational profile of RPL27 (ENSG00000131469): − (− = <0.9) | renormalizing the translational profile of MATN3 (ENSG00000132031): − (− = <0.9) | renormalizing the translational profile of PPARG (ENSG00000132170): + (+ = 0.9 to 1.5) | renormalizing the translational profile of KDM6B (ENSG00000132510): − (− = <0.9) | renormalizing the translational profile of RARRES3 (ENSG00000133321): − (− = <0.9) | renormalizing the translational profile of BIVM (ENSG00000134897): − (− = <0.9) | renormalizing the translational profile of ATP5G2 (ENSG00000135390): − (− = <0.9) | renormalizing the translational profile of KRT7 (ENSG00000135480): − (− = <0.9) | renormalizing the translational profile of HNRNPA1 (ENSG00000135486): − (− = <0.9) | renormalizing the translational profile of IL6 (ENSG00000136244): − (− = <0.9) | renormalizing the translational profile of RPL35 (ENSG00000136942): − (− = <0.9) | renormalizing the translational profile of NOV (ENSG00000136999): + (+ = 0.9 to 1.5) | renormalizing the translational profile of IER3 (ENSG00000137331): − (− = <0.9) | renormalizing the translational profile of DDX60 (ENSG00000137628): − (− = <0.9) | renormalizing the translational profile of RPLP1 (ENSG00000137818): − (− = <0.9) | renormalizing the translational profile of PAQR5 (ENSG00000137819): − (− = <0.9) | renormalizing the translational profile of AOX1 (ENSG00000138356): ++ (++ = 1.5 to 2.0) | renormalizing the translational profile of FGF5 (ENSG00000138675): − (− = <0.9) | renormalizing the translational profile of PDE5A (ENSG00000138735): − (− = <0.9) | renormalizing the translational profile of GAS2L3 (ENSG00000139354): + (+ = 0.9 to 1.5) | renormalizing the translational profile of DIAPH3 (ENSG00000139734): − (− = <0.9) | renormalizing the translational profile of MYO19 (ENSG00000141140): − (− = <0.9) | renormalizing the translational profile of RPL13A (ENSG00000142541): − (− = <0.9) | renormalizing the translational profile of RPL11 (ENSG00000142676): − (− = <0.9) | renormalizing the translational profile of ACTA1 (ENSG00000143632): − (− = <0.9) | renormalizing the translational profile of PLEKHA6 (ENSG00000143850): + (+ = 0.9 to 1.5) | renormalizing the translational profile of RPL32 (ENSG00000144713): − (− = <0.9) | renormalizing the translational profile of RPL37 (ENSG00000145592): − (− = <0.9) | renormalizing the translational profile of BTF3 (ENSG00000145741): − (− = <0.9) | renormalizing the translational profile of HIGD2A (ENSG00000146066): − (− = <0.9) | renormalizing the translational profile of CREB5 (ENSG00000146592): − (− = <0.9) | renormalizing the translational profile of DENND2A (ENSG00000146966): − (− = <0.9) | renormalizing the translational profile of RPL10 (ENSG00000147403): + (+ = 0.9 to 1.5) | renormalizing the translational profile of EIF3H (ENSG00000147677): − (− = <0.9) | renormalizing the translational profile of RPL7A (ENSG00000148303): − (− = <0.9) | renormalizing the translational profile of EIF3M (ENSG00000149100): − (− = <0.9) | renormalizing the translational profile of FAU (ENSG00000149806): − (− = <0.9) | renormalizing the translational profile of CCDC102B (ENSG00000150636): + (+ = 0.9 to 1.5) | renormalizing the translational profile of FRMD4A (ENSG00000151474): + (+ = 0.9 to 1.5) | renormalizing the translational profile of HOMER1 (ENSG00000152413): − (− = <0.9) | renormalizing the translational profile of PLEKHH2 (ENSG00000152527): − (− = <0.9) | renormalizing the translational profile of ANKH (ENSG00000154122): − (− = <0.9) | renormalizing the translational profile of ABCA6 (ENSG00000154262): − (− = <0.9) | renormalizing the translational profile of OBSCN (ENSG00000154358): +++ (+++ = >2.0) | renormalizing the translational profile of ADAMTS5 (ENSG00000154736): − (− = <0.9) | renormalizing the translational profile of OXA1L (ENSG00000155463): − (− = <0.9) | renormalizing the translational profile of C9orf85 (ENSG00000155621): − (− = <0.9) | renormalizing the translational profile of RPL30 (ENSG00000156482): − (− = <0.9) | renormalizing the translational profile of EEF1A1 (ENSG00000156508): + (+ = 0.9 to 1.5) | renormalizing the translational profile of NRG1 (ENSG00000157168): − (− = <0.9) | renormalizing the translational profile of ADAMTS4 (ENSG00000158859): − (− = <0.9) | renormalizing the translational profile of RPL8 (ENSG00000161016): − (− = <0.9) | renormalizing the translational profile of RPL26 (ENSG00000161970): − (− = <0.9) | renormalizing the translational profile of RPL29 (ENSG00000162244): − (− = <0.9) | renormalizing the translational profile of CAMK2N1 (ENSG00000162545): − (− = <0.9) | renormalizing the translational profile of IGFBP7 (ENSG00000163453): − (− = <0.9) | renormalizing the translational profile of RPL22L1 (ENSG00000163584): − (− = <0.9)
